Experimental findings from ChEMBL document CHEMBL5241064, “Specific non-genetic IAP-based protein erasers (SNIPERs) as a potential therapeutic strategy” (Eur J Med Chem, 2021) are described below.

Experiment [1] concerns the target Baculoviral IAP repeat-containing protein 2/Cellular retinoic acid-binding protein 2 (Homo sapiens, UniProt P29373+Q13490). As to the kind of experiment: Protac activity at cIAP1 (unknown origin)/CRABP-II (unknown origin) assessed as protein degradation.
Experiment [2] has as its target E3 ubiquitin-protein ligase XIAP/Tyrosine-protein kinase ABL1/Breakpoint cluster region protein (Homo sapiens, UniProt P00519+P11274+P98170). As to the kind of experiment: Protac activity at XIAP/BCR-ABL in human K562 cells assessed as induction of BCR-ABL protein degradation measured after 6 hrs by Western blot analysis. The experiment is classed as cell-based. (Immunoblotting shows a protein as a band on a membrane.)

Experiment [3] deals with Baculoviral IAP repeat-containing protein 2/E3 ubiquitin-protein ligase XIAP/Breakpoint cluster region protein/Tyrosine-protein kinase ABL1 (Homo sapiens, UniProt P00519+P11274+P98170+Q13490). As to the kind of experiment: Protac activity at IAP/BCR-ABL in human K562 cells assessed as induction of BCR-ABL protein degradation measured after 6 hrs by Western blot analysis. In kind it is cell-based.

The target of experiment [4] is Estrogen receptor/E3 ubiquitin-protein ligase XIAP (Homo sapiens, UniProt P03372+P98170). As to the kind of experiment: Protac activity at XIAP (unknown origin)/ERalpha (unknown origin) assessed as protein degradation. The experiment is classed as protein assay.
Sequence of Estrogen receptor/E3 ubiquitin-protein ligase XIAP (P03372 whole entry): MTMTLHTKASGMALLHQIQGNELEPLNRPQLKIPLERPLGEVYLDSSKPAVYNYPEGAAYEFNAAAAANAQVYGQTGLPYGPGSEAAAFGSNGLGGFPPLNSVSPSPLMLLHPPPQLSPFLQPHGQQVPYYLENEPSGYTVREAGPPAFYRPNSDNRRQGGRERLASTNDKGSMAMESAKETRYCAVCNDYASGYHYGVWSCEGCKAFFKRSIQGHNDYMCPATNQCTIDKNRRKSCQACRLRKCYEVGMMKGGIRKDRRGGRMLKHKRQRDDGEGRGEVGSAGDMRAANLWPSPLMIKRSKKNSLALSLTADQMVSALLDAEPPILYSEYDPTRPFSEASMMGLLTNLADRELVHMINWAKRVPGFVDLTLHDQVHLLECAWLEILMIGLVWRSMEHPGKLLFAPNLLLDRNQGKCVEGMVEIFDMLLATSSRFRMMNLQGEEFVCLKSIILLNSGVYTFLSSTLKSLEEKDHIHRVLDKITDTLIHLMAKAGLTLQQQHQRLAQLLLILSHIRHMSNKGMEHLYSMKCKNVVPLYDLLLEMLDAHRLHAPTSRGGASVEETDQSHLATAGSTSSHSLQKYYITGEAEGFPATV
Sequence of Estrogen receptor/E3 ubiquitin-protein ligase XIAP (P98170 whole entry): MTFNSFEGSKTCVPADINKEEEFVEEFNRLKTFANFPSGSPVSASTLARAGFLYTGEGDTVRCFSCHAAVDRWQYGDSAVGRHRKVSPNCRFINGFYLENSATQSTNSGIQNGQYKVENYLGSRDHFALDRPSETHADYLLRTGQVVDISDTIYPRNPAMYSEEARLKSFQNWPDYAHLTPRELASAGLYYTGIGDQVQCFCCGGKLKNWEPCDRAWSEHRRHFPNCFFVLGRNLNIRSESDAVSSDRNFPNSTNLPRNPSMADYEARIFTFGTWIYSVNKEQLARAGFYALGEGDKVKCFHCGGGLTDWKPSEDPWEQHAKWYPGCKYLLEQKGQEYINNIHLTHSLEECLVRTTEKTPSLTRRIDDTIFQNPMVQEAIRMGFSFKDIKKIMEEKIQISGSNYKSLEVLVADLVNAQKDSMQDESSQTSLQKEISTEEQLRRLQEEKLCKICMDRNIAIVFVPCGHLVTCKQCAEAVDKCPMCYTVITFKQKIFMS

Structures are written as SMILES. A value given as a limit tells only on which side of the number the result lay.

Usually EC50 stands for the concentration needed to bring the measured effect to its halfway point.

Sequence of Baculoviral IAP repeat-containing protein 2/Cellular retinoic acid-binding protein 2 (P29373 whole entry): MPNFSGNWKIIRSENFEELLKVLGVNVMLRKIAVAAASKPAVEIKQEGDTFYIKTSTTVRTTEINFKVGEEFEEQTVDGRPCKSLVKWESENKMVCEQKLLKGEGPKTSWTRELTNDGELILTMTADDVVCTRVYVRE
Sequence of Baculoviral IAP repeat-containing protein 2/Cellular retinoic acid-binding protein 2 (Q13490 whole entry): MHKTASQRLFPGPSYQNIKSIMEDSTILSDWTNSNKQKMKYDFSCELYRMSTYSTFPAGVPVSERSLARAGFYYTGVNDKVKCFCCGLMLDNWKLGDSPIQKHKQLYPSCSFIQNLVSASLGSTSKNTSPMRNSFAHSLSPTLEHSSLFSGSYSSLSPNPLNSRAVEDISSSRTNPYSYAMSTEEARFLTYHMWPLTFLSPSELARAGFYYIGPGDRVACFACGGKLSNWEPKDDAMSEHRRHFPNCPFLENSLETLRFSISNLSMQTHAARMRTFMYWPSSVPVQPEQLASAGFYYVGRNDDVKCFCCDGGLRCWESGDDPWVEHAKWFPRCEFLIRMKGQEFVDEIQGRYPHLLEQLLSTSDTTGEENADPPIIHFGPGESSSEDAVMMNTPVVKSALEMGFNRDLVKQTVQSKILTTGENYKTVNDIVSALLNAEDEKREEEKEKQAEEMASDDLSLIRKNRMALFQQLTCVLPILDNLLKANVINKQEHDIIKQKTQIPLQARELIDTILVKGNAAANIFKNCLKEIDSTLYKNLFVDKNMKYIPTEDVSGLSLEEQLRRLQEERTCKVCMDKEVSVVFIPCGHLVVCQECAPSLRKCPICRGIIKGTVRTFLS
Sequence of E3 ubiquitin-protein ligase XIAP/Tyrosine-protein kinase ABL1/Breakpoint cluster region protein (P00519 whole entry): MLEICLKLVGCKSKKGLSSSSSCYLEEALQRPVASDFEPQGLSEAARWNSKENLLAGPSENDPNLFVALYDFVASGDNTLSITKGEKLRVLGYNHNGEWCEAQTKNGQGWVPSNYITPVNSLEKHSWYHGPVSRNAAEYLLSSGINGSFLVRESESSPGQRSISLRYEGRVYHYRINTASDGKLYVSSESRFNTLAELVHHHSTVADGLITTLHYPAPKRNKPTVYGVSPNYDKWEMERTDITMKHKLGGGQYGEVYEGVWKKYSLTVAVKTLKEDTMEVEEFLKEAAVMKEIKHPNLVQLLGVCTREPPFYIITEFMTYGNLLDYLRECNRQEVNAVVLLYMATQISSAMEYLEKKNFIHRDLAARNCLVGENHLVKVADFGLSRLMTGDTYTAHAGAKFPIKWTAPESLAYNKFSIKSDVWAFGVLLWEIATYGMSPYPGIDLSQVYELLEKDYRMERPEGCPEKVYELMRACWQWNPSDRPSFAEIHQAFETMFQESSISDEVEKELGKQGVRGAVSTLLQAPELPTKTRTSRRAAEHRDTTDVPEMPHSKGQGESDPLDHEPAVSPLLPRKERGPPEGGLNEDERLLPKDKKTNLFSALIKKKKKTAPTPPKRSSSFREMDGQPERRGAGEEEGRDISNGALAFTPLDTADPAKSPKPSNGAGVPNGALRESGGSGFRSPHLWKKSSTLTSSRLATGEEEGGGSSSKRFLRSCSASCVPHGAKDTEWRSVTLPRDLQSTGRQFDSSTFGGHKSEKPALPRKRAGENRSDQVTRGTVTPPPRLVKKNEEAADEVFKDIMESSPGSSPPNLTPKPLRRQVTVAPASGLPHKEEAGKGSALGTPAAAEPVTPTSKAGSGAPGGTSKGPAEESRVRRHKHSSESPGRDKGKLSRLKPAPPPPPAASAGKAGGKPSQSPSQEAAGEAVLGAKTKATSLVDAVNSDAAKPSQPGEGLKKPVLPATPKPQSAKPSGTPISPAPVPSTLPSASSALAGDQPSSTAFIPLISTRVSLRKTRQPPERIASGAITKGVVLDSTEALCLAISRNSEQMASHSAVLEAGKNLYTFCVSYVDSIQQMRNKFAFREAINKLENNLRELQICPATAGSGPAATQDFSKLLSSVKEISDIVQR
Sequence of E3 ubiquitin-protein ligase XIAP/Tyrosine-protein kinase ABL1/Breakpoint cluster region protein (P98170 whole entry): as the sequence (P98170 whole entry) above
Sequence of E3 ubiquitin-protein ligase XIAP/Tyrosine-protein kinase ABL1/Breakpoint cluster region protein (P11274 whole entry): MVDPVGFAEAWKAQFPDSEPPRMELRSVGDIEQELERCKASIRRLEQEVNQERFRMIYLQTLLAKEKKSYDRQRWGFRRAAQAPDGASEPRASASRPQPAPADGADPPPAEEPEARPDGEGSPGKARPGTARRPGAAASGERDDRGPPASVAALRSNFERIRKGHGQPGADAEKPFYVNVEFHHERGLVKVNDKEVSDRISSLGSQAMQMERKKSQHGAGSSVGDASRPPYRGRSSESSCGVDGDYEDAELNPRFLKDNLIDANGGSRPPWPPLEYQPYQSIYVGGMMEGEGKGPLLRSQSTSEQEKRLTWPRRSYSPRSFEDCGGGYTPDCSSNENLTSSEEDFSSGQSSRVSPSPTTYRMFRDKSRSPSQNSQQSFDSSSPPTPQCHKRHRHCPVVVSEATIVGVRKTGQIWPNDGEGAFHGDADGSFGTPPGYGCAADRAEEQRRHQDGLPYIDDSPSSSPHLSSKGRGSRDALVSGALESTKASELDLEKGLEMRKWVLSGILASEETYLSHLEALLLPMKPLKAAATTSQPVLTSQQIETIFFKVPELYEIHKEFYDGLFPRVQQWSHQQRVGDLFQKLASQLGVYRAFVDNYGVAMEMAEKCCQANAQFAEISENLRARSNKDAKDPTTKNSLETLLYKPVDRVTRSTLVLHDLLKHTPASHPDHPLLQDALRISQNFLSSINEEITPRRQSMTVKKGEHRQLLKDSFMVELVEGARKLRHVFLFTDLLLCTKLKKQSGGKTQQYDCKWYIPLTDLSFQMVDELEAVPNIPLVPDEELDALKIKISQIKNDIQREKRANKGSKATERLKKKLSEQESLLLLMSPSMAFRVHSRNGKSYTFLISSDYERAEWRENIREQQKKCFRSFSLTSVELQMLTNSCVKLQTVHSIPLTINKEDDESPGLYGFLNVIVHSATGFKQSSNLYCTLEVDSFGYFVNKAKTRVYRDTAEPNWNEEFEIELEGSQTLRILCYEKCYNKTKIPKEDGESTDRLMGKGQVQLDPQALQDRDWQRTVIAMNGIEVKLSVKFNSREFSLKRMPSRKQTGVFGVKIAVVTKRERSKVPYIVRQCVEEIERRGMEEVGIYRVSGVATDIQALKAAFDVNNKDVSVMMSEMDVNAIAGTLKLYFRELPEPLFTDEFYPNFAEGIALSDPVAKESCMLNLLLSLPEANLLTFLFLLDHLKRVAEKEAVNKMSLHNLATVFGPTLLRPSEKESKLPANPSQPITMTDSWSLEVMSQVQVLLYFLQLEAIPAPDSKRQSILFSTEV

For the molecule `CC1=C(/C=C/C(C)=C/C=C/C(C)=C/C(=O)O)C(C)(C)CC/C1=N\OCC(=O)NCCOCCOCCOC(=O)[C@H](CC(C)C)NC(=O)[C@@H](O)[C@H](N)Cc1ccccc1`, the EC50 in experiment [1] was at least 1000 nM. For the molecule `CN[C@@H](C)C(=O)N[C@H](C(=O)N1CCC[C@H]1c1nc(C(=O)c2cccc(OCCOCCOCCOCC(=O)N3CCN(c4cc(Nc5ncc(C(=O)Nc6c(C)cccc6Cl)s5)nc(C)n4)CC3)c2)cs1)C1CCCCC1`, the EC50 in experiment [2] and in experiment [3] was under 100 nM in each case. For `CC/C(=C(\c1ccc(O)cc1)c1ccc(OCCN(C)C(=O)COCCOCCOCc2cccc(O[C@H]3C[C@@H](C(=O)N[C@@H]4CCCc5ccccc54)N(C(=O)[C@@H](NC(=O)[C@H](C)NC)C4CCCCC4)C3)c2)cc1)c1ccccc1`, the EC50 in experiment [4] is under 100 nM. Take `CC/C(=C(\c1ccc(O)cc1)c1ccc(OCCN(C)C(=O)COCCCCOc2cccc(C(=O)c3csc([C@@H]4CCCN4C(=O)[C@@H](NC(=O)[C@H](C)NC)C4CCCCC4)n3)c2)cc1)c1ccccc1`: the EC50 in experiment [4] is under 100 nM.
